Data from patent US20170151221A1, “PHARMACEUTICAL COMPOSITIONS COMPRISING CEFEPIME OR SULBACTAM” (priority 2014, published 2017).
Where two headings read alike, the source gives them in different places.

Legend:
[1] = test system: Acinetobacter baumannii NCTC 13301 producing Carbapenemase hydrolyzing OXA 23 enzyme; assay: Time kill study; format: cell-based; conditions: for Effect on bacterial count throughout the duration of the study (in words): cefepime, sulbactam, imipenem at 8 mcg/ml, compound of Formula (I) at 4 mcg/ml, alone or in combination
Protocol: (§1) The synergistic killing effect of the combinations according to invention was studied by performing typical time kill studies. Typically, freshly grown cultures were diluted to the required cell density (initial starting inoculum) in Cation adjusted Muller Hinton broth medium (BD, USA). The antibacterial agents at the required concentrations were added into the culture-containing medium either alone or in combination. The samples were incubated under shaking condition (120 rpm) at 37° C. Enumeration of viable bacterial count was undertaken, every 2 hour, by diluting in normal saline and plating on to the Tryptic Soya Agar plates (BD, USA). The plates were incubated for 24 hours to arrive at the viable bacterial count. […] The decrease of 1 Log CFU/ml, after administration of combination of present invention, in comparison to initial bacterial count corresponds to 90% killing of bacteria. Similarly, 2 Log CFU/ml reductions corresponds to 99% killing of bacteria and 3 Log CFU/ml reductions is equal to 99.9% killing of bacteria.
(§2) The assay without any antibacterial agent was taken as control.

[2] = test system: Acinetobacter baumannii NCTC 13302 producing carbapenemase hydrolyzing OXA 25 enzyme; assay: Time kill study; format: cell-based; conditions: for Effect on bacterial count throughout the duration of the study (in words): cefepime, sulbactam, imipenem at 8 mcg/ml, compound of Formula (I) at 4 mcg/ml, alone or in combination
Protocol: as §1, §2

[3] = test system: A. baumannii 1449880 [OXA 51, OXA 23]; assay: MIC by agar dilution (Muller Hinton Agar, CLSI); format: cell-based; conditions: Acinetobacter baumannii
Protocol: (§3) The antibacterial activity of combinations according to the invention was investigated against various bacterial strains. In a typical study, minimum inhibitory concentrations (MIC) were determined using Muller Hinton Agar (MHA) (BD, USA) according to Clinical and Laboratory Standards Institute (CLSI) recommendations, (Clinical and Laboratory Standards Institute (CLSI), Performance Standards for Antimicrobial Susceptibility Testing, 20th Informational Supplement, M 100-S20, Volume 30, No. 1, 2010). In short, the inocula were adjusted to deliver about 10^4 colony forming units (CFU) per spot with a multipoint inoculator (Applied Quality Services, UK). The plates were pored with doubling concentration range of the test combinations according to invention containing MHA. The plates were inoculated and were incubated at 35° C. for 18 hours.

[4] = test system: A. baumannii 1363934 [OXA 51, OXA 23]; assay: MIC by agar dilution (Muller Hinton Agar, CLSI); format: cell-based; conditions: Acinetobacter baumannii
Protocol: as §3

[5] = test system: A. baumannii S 8 [OXA 51, OXA 23]; assay: MIC by agar dilution (Muller Hinton Agar, CLSI); format: cell-based; conditions: Acinetobacter baumannii
Protocol: as §3

[6] = test system: A. baumannii J 145 [OXA 51, OXA 24]; assay: MIC by agar dilution (Muller Hinton Agar, CLSI); format: cell-based; conditions: Acinetobacter baumannii
Protocol: as §3

[7] = test system: A. baumannii NCTC 13302 [OXA 51, OXA 25]; assay: MIC by agar dilution (Muller Hinton Agar, CLSI); format: cell-based; conditions: Acinetobacter baumannii
Protocol: as §3

[8] = test system: A. baumannii NCTC 13304 [OXA 51, OXA 27]; assay: MIC by agar dilution (Muller Hinton Agar, CLSI); format: cell-based; conditions: Acinetobacter baumannii
Protocol: as §3

[9] = test system: carbapenam hydrolyzing (CHDL) and oxacillinases (OXA) producing Acinetobactor strains; assay: Antibacterial activity, summary statements over Tables 1-3; format: cell-based, Acinetobacter baumannii; conditions: for Change of MIC values in the presence of compound of Formula (I) (in words): Table 1 strains, compound of Formula (I) at 4 or 8 mcg/ml; for Antibacterial effect against highly resistant strains of A. baumannii (in words): summary of Tables 1-3
Protocol: as §3, §1

[10] = 0 hours, agent alone at 8 mcg/ml
[11] = 2 hours, agent alone at 8 mcg/ml
[12] = 4 hours, agent alone at 8 mcg/ml
[13] = 6 hours, agent alone at 8 mcg/ml
[14] = 8 hours, agent alone at 8 mcg/ml
[15] = read-out: MIC (mcg/ml) in presence of Compound of Formula (I) at 4 mcg/ml
[16] = read-out: MIC (mcg/ml) in presence of Compound of Formula (I) at 8 mcg/ml
[17] = agent alone, A. baumannii 1449880, read-out: MIC
[18] = agent alone, A. baumannii 1363934, read-out: MIC
[19] = agent alone, A. baumannii S 8, read-out: MIC
[20] = agent alone, A. baumannii J 145, read-out: MIC
[21] = NCTC13302, agent alone, A. baumannii NCTC 13302, read-out: MIC
[22] = NCTC13304, agent alone, A. baumannii NCTC 13304, read-out: MIC
[23] = 0 hours, agent alone at 4 mcg/ml
[24] = 2 hours, agent alone at 4 mcg/ml
[25] = 4 hours, agent alone at 4 mcg/ml
[26] = 6 hours, agent alone at 4 mcg/ml
[27] = 8 hours, agent alone at 4 mcg/ml

| Compound | Bacterial count (Log10 CFU/ml) [1, 10] | Bacterial count (Log10 CFU/ml) [1, 11] | Bacterial count (Log10 CFU/ml) [1, 12] | Bacterial count (Log10 CFU/ml) [1, 13] | Bacterial count (Log10 CFU/ml) [1, 14] | Effect on bacterial count throughout the duration of the study (in words) ([1]; 8 hours) | Bacterial count (Log10 CFU/ml) [2, 10] | Bacterial count (Log10 CFU/ml) [2, 11] | Bacterial count (Log10 CFU/ml) [2, 12] | Bacterial count (Log10 CFU/ml) [2, 13] | Bacterial count (Log10 CFU/ml) [2, 14] | Effect on bacterial count throughout the duration of the study (in words) ([2]; 8 hours) | Change of MIC values in the presence of compound of Formula (I) (in words) [9] | Antibacterial effect against highly resistant strains of A. baumannii (in words) [9] | MIC [3, 17] | MIC [4, 18] | MIC [5, 19] | MIC [6, 20] | MIC [7, 21] | MIC [8, 22] | other results |
| --- | --- | --- | --- | --- | --- | --- | --- | --- | --- | --- | --- | --- | --- | --- | --- | --- | --- | --- | --- | --- | --- |
| CC1(C)[C@H](C(=O)O)N2C(=O)C[C@H]2S1(=O)=O [Sulbactam] | 6.32 Log10 CFU/ml | 7.27 Log10 CFU/ml | 7.65 Log10 CFU/ml | 7.74 Log10 CFU/ml | 7.81 Log10 CFU/ml | not effective to decrease the bacterial count | 6.30 Log10 CFU/ml | 7.39 Log10 CFU/ml | 7.69 Log10 CFU/ml | 7.34 Log10 CFU/ml | 7.34 Log10 CFU/ml | not effective to decrease the bacterial count | significantly decreased | ineffective | – | – | – | – | – | – | MIC ([3]; read-out: MIC (mcg/ml)): 8 µg/mL; MIC [3, 15]: 0.5 µg/mL; MIC [3, 16]: 0.5 µg/mL; MIC ([4]; read-out: MIC (mcg/ml)): 16 µg/mL; MIC [4, 15]: 2 µg/mL; MIC [4, 16]: 2 µg/mL; MIC ([5]; read-out: MIC (mcg/ml)): 16 µg/mL; MIC [5, 15]: 8 µg/mL; MIC [5, 16]: 4 µg/mL; MIC ([6]; read-out: MIC (mcg/ml)): 16 µg/mL; MIC [6, 15]: 2 µg/mL; MIC [6, 16]: 2 µg/mL; MIC ([7]; NCTC13302, read-out: MIC (mcg/ml)): 16 µg/mL; MIC ([7]; NCTC13302, read-out: MIC (mcg/ml) in presence of Compound of Formula (I) at 4 mcg/ml): 2 µg/mL; MIC ([7]; NCTC13302, read-out: MIC (mcg/ml) in presence of Compound of Formula (I) at 8 mcg/ml): 1 µg/mL; MIC ([8]; NCTC13304, read-out: MIC (mcg/ml)): 16 µg/mL; MIC ([8]; NCTC13304, read-out: MIC (mcg/ml) in presence of Compound of Formula (I) at 4 mcg/ml): 2 µg/mL; MIC ([8]; NCTC13304, read-out: MIC (mcg/ml) in presence of Compound of Formula (I) at 8 mcg/ml): 2 µg/mL |
| CO/N=C(\C(=O)N[C@@H]1C(=O)N2C(C(=O)[O-])=C(C[N+]3(C)CCCC3)CS[C@H]12)c1csc(N)n1 [Cefepime] | 6.32 Log10 CFU/ml | 8.26 Log10 CFU/ml | 8.06 Log10 CFU/ml | 8.26 Log10 CFU/ml | 8.13 Log10 CFU/ml | not effective to decrease the bacterial count | 6.30 Log10 CFU/ml | 7.740 Log10 CFU/ml | 7.929 Log10 CFU/ml | 7.662 Log10 CFU/ml | 7.56 Log10 CFU/ml | not effective to decrease the bacterial count | significantly decreased | ineffective | > 32 µg/mL | > 32 µg/mL | > 32 µg/mL | 32 µg/mL | 32 µg/mL | 32 µg/mL | MIC ([3]; with Compound of Formula (I) at 4 mcg/ml, A. baumannii 1449880, read-out: MIC (mcg/ml) in presence of Compound of Formula (I) at 4 mcg/ml): 2 µg/mL; MIC ([3]; with Compound of Formula (I) at 8 mcg/ml, A. baumannii 1449880, read-out: MIC (mcg/ml) in presence of Compound of Formula (I) at 8 mcg/ml): 2 µg/mL; MIC ([4]; with Compound of Formula (I) at 4 mcg/ml, A. baumannii 1363934, read-out: MIC (mcg/ml) in presence of Compound of Formula (I) at 4 mcg/ml): 16 µg/mL; MIC ([4]; with Compound of Formula (I) at 8 mcg/ml, A. baumannii 1363934, read-out: MIC (mcg/ml) in presence of Compound of Formula (I) at 8 mcg/ml): 8 µg/mL; MIC ([5]; with Compound of Formula (I) at 4 mcg/ml, A. baumannii S 8, read-out: MIC (mcg/ml) in presence of Compound of Formula (I) at 4 mcg/ml): 8 µg/mL; MIC ([5]; with Compound of Formula (I) at 8 mcg/ml, A. baumannii S 8, read-out: MIC (mcg/ml) in presence of Compound of Formula (I) at 8 mcg/ml): 8 µg/mL; MIC ([6]; with Compound of Formula (I) at 4 mcg/ml, A. baumannii J 145, read-out: MIC (mcg/ml) in presence of Compound of Formula (I) at 4 mcg/ml): 16 µg/mL; MIC ([6]; with Compound of Formula (I) at 8 mcg/ml, A. baumannii J 145, read-out: MIC (mcg/ml) in presence of Compound of Formula (I) at 8 mcg/ml): 8 µg/mL; MIC ([7]; NCTC13302, with Compound of Formula (I) at 4 mcg/ml, A. baumannii NCTC 13302, read-out: MIC (mcg/ml) in presence of Compound of Formula (I) at 4 mcg/ml): 8 µg/mL; MIC ([7]; NCTC13302, with Compound of Formula (I) at 8 mcg/ml, A. baumannii NCTC 13302, read-out: MIC (mcg/ml) in presence of Compound of Formula (I) at 8 mcg/ml): 8 µg/mL; MIC ([8]; NCTC13304, with Compound of Formula (I) at 4 mcg/ml, A. baumannii NCTC 13304, read-out: MIC (mcg/ml) in presence of Compound of Formula (I) at 4 mcg/ml): 8 µg/mL; MIC ([8]; NCTC13304, with Compound of Formula (I) at 8 mcg/ml, A. baumannii NCTC 13304, read-out: MIC (mcg/ml) in presence of Compound of Formula (I) at 8 mcg/ml): 4 µg/mL |
| C[C@@H](O)[C@H]1C(=O)N2C(C(=O)O)=C(SCCN=CN)C[C@H]12 [Imipenem] | 6.32 Log10 CFU/ml | 8.20 Log10 CFU/ml | 8.43 Log10 CFU/ml | 8.43 Log10 CFU/ml | 8.51 Log10 CFU/ml | – | 6.30 Log10 CFU/ml | 8.079 Log10 CFU/ml | 8.703 Log10 CFU/ml | 8.176 Log10 CFU/ml | 8.38 Log10 CFU/ml | – | – | – | 8 µg/mL | > 32 µg/mL | 16 µg/mL | > 32 µg/mL | > 32 µg/mL | > 32 µg/mL | – |
| O=C(NNC(=O)[C@@H]1CC[C@@H]2CN1C(=O)N2OS(=O)(=O)O)[C@@H]1CCNC1 [Compound of Formula (I), trans-sulfuric acid mono-[2-(N′-[(R)-pyrrolidin-3-carbonyl]-hydrazinocarbonyl)-7-oxo-1,6-diaza-bicyclo[3.2.1]oct-6-yl] ester] | – | – | – | – | – | not effective to decrease the bacterial count | – | – | – | – | – | not effective to decrease the bacterial count | – | ineffective | > 128 µg/mL | > 128 µg/mL | > 128 µg/mL | > 128 µg/mL | > 128 µg/mL | > 128 µg/mL | Bacterial count (Log10 CFU/ml) [1, 23]: 6.32 Log10 CFU/ml; Bacterial count (Log10 CFU/ml) [1, 24]: 8.02 Log10 CFU/ml; Bacterial count (Log10 CFU/ml) [1, 25]: 8.36 Log10 CFU/ml; Bacterial count (Log10 CFU/ml) [1, 26]: 8.35 Log10 CFU/ml; Bacterial count (Log10 CFU/ml) [1, 27]: 8.39 Log10 CFU/ml; Bacterial count (Log10 CFU/ml) [2, 23]: 6.30 Log10 CFU/ml; Bacterial count (Log10 CFU/ml) [2, 24]: 7.903 Log10 CFU/ml; Bacterial count (Log10 CFU/ml) [2, 25]: 7.845 Log10 CFU/ml; Bacterial count (Log10 CFU/ml) [2, 26]: 7.875 Log10 CFU/ml; Bacterial count (Log10 CFU/ml) [2, 27]: 8.04 Log10 CFU/ml |
